Like-named read-outs stand apart in the source and are kept apart here.
What was measured:
[1] = tested on: human embryonic stem-cell derived retinal pigmented epithelium (hESC-RPE); experiment: Drusen in vitro assay: APOE/APOE4 deposition induced by 5% human serum; type: cell-based; conditions: for minimal effective concentration: Embryonic stem cell, hESC-RPE, 24 h pre-incubation, then 48 h with 5% human serum
Description: (§1) Retinal Pigmented Epithelium Cell Culture: Human embryonic stem-cell derived retinal pigmented epithelium (hESC-RPE) were cultured on Transwell inserts for at least 4 weeks in serum-free XVIVO culture medium. After 4 weeks, polygonal, pigmented monolayers of hESC-RPE were visualized by phase contrast and bright-field microscopy, indicating appropriately matured RPE cells. Drusen assay experiments were performed after the initial 4-week maturation period.
(§2) Drusen Assay: Matured hESC-RPE monolayers were incubated with 5% complement competent human serum (HS) for 48 hours to elicit Drusen formation. After the 48 hour HS incubation period, hESC-RPE monolayers (whole inserts) were fixed with 4% paraformaldehyde for 10 minutes at room temperature. Following fixation, inserts were individually removed from plates and cut out of their holders using a scalpel yielding individual membranes with hESC-RPE monolayers. Membranes were transferred to 24-well plates for storage in phosphate buffered saline with calcium and magnesium (PBS+/+).
Drusen Assay with Atorvastatin Treatment: Matured hESC-RPE inserts were pre-incubated with varying concentrations of atorvastatin (ranging from […]) in both the top and bottom insert compartments for 24 hours in an incubator set at 37 °C with 5% CO2. On the following day, medium was exchanged with fresh culture medium containing atorvastatin and 5% HS and incubated for an additional 48 hours in an incubator set at 37 °C with 5% CO2. After 48 hour incubation period, inserts were fixed and processed for antibody staining.
Fixed membranes were incubated with block solution containing 1% bovine serum albumin (BSA) and 0.1% Triton X in PBS+/+ for 1 hr at room temperature. After the block incubation period, membranes were incubated overnight at 4 °C with primary antibody solution containing 1% BSA and goat anti-APOE4 antibody (1:250) and mouse anti-C5b9 antibody (1:250). On the following day, membranes were washed thrice for 10 min with PBS+/+ and incubated with secondary antibody solution containing 1% BSA and AlexaFluor donkey anti-goat 546 (1:200) and AlexaFluor donkey anti-mouse 488 (1:200) for 1 hr at room temperature in the dark. Following secondary antibody incubation period, membranes were washed thrice for 10 min with PBS+/+ and counterstained with Hoechst solution (1:1000) in PBS+/+ for 10 min at room temperature. Membranes were then transferred to microscope slides and mounted using ProLong Gold anti-fade solution and coverslips. Slides were imaged using a Leica SP8 Scanning Resonant Confocal Microscope using identical settings and laser power. At least 3 fields of view were collected per sample.
Image quantification and figure preparation: Fiji (Image J) software was used for processing all the images. All images were processed with the parameters described below: Contrast adjustment—the value of contrast for the APOE4 channel was set to 90-230 to improve the accuracy of object observation. Thresholding—the cutoff value of the threshold for the APOE4 channel was set as 100 to 255 to identify the pixels as real expressions. Size-Particles with an area larger than 1.5 A.U. were counted as true APOE4 expressions to minimize the likelihood of false positives in the image. Measurements, including deposit counts and the total area, were then exported as a .csv file for analysis. All images were taken in triplicate per treatment. Results are presented as mean±SEM and were graphed using Graph Pad PRISM v6. Statistical significance was established using one-way ANOVA tests followed by Tukey's multiple comparisons test.

[2] = tested on: human embryonic stem-cell derived retinal pigmented epithelium (hESC-RPE); experiment: Complement activity: C5b-9 immunostaining in human serum-treated hESC-RPE; type: cell-based; conditions: increasing concentrations of atorvastatin; 5% human serum; FIG. 4
Description: as §1
as §2, with “(PBS+/+). […]” for “(PBS+/+).”
Image quantification and figure preparation: Fiji (Image J) software was used for processing all the images. […] Size-Particles with an area larger than 1.5 A.U. were counted as true APOE4 expressions to minimize the likelihood of false positives in the image. […]

eye = conditions: applied topically in the eye; Grant, Toxicology of the Eye; cited from earlier work
[3] = cited from earlier work

SMILES | minimal effective concentration ([1]; read-out: concentration from which APOE deposition area decreased (starting at)) [µM] | minimal effective concentration ([1]; read-out: concentration from which total counts of APOE deposits decreased (starting at)) [µM] | total counts of APOE deposits at higher ATV concentrations ([1]; higher ATV concentrations (above 123 nM), 5% human serum, 48 h) | APOE deposition area at higher ATV concentrations ([1]; higher ATV concentrations (above 370 nM), 5% human serum, 48 h) | APOE deposition (area) ([1]; increasing atorvastatin concentrations, 5% human serum, 48 h) | total counts of APOE deposition ([1]; increasing atorvastatin concentrations, 5% human serum, 48 h, FIG. 3) | expression of APOE4 per field of view ([1]; increasing concentrations of atorvastatin, 5% human serum, FIG. 3) | C5b-9 expression / C5b-9 positive puncta per field of view [2] | eye damage on topical application (eye) | in vivo metabolism ([3]; in vivo, Handbook of Pesticide Toxicology) | excretion ([3]; urine, after oxidation of benzyl alcohol to benzoic acid and conjugation with glucuronic acid) | excretion (minor route) ([3]; urine, to a lesser extent, benzoic acid conjugated with glycine)
CC(C)c1c(C(=O)Nc2ccccc2)c(-c2ccccc2)c(-c2ccc(F)cc2)n1CC[C@@H](O)C[C@@H](O)CC(=O)O [Atorvastatin, atorvastatin] | 0.37 | 0.123 | nearly complete elimination | nearly complete elimination | reduced APOE deposition dose-dependently | reduced the total counts of APOE deposition dose-dependently | decreased expression of APOE4 | reduces APOE4 and C5b-9 expression | – | – | – | –
O=C(OCc1ccccc1)c1ccccc1 [Benzyl benzoate] | – | – | – | – | – | – | – | – | no damage | hydrolyzed to benzoic acid and benzyl alcohol | excreted in the urine as benzoylglucuronic acid | excreted in the urine as hippuric acid

Source: US20260355154A1, “IMPLANTS, COMPOSITIONS, AND METHODS FOR TREATING RETINAL DISEASES AND DISORDERS” (Osanni Bio, Inc., priority 2024, published 2026)
